The values that follow come from ChEMBL document CHEMBL1128910, “Time-dependent inactivation of steroid C17(20) lyase by 17-cyclopropyl ether-substituted steroids” (Bioorg Med Chem Lett, 1996).

SMILES strings stand for the structures.

Experiment [1] has as its target T1, Steroid 17-alpha-hydroxylase/17,20 lyase (Homo sapiens, UniProt P05093).
T1 sequence (P05093 whole entry): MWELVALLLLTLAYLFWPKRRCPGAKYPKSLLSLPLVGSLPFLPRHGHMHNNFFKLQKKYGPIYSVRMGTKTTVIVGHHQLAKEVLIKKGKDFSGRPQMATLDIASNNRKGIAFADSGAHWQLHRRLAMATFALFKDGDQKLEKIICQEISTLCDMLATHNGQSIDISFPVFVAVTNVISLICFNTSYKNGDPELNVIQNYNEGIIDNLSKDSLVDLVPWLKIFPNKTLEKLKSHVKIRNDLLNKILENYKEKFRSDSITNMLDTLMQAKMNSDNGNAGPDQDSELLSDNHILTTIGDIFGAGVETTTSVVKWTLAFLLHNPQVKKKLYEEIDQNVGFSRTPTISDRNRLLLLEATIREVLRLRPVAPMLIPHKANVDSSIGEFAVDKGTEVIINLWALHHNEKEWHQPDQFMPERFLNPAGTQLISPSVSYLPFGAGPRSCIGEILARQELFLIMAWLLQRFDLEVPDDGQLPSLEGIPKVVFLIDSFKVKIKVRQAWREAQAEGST
Put plainly: Inhibition of human Cytochrome P450 steroid 17-alpha-hydroxylase/17,20 lyase at 0.8 uM pre-incubation time 30 minutes.

Experiment [2] has as its target T1, Steroid 17-alpha-hydroxylase/17,20 lyase. Put plainly: Inhibition of human Cytochrome P450 steroid 17-alpha-hydroxylase/17,20 lyase at 0.8 uM.
The target is the same in experiment [3]. Description: Inhibition of cynomolgus monkey Cytochrome P450 steroid 17-alpha-hydroxylase/17,20 lyase at 1 uM preincubation time 40 minutes.
For experiment [4] the target is unchanged. Put plainly: Inhibition of cynomolgus monkey Cytochrome P450 steroid 17-alpha-hydroxylase/17,20 lyase at 1 uM.
Experiment [5] shares this target. Description: Inhibition of cynomolgus monkey Cytochrome P450 steroid 17-alpha-hydroxylase/17,20 lyase at 0.1 uM.
Experiment [6] shares this target. Put plainly: Inhibition of cynomolgus monkey Cytochrome P450 steroid 17-alpha-hydroxylase/17,20 lyase at 0.1 uM pre-incubation time of 40 minutes.

A word on the inhibition: it is the relative decrease from the control value, in per cent. For the molecule `C[C@]12CCC3C(CC=C4C[C@@H](O)[C@H]5COC[C@]43C5)C1CC[C@@H]2OC1CC1` (stereo partly specified), the inhibition at 0.8 µM in experiment [1] and in experiment [2] was 0% throughout.
In the case of `C[C@]12CCC(=O)C=C1CCC1C2CC[C@@]2(C)C1CC[C@@H]2OC1CC1` (stereo partly specified), the inhibition at 1 µM came to 90% in experiment [3] and 73% in experiment [4]. The inhibition at 0.1 µM is 26% in experiment [5] and 55% in experiment [6].
With `CC1(C)C2=CCC3C(CC[C@@]4(C)C3CC[C@@H]4OC3CC3)[C@@]2(C)CC[C@@H]1O` (stereo partly specified), the inhibition at 0.8 µM in experiment [1] and in experiment [2] was 0% in each case.
As to `C[C@]12CC[C@H](O)CC1=CCC1C2CC[C@@]2(C)C1CC[C@@H]2OC1CC1` (stereo partly specified), the values for the inhibition at 0.8 µM in experiment [1] and in experiment [2] were 64% and 11%, respectively.
Turning to `C[C@]12CCC3C(CCC4=CC(=O)[C@H]5COC[C@]43C5)C1CC[C@@H]2OC1CC1` (stereo partly specified), the inhibition at 0.8 µM stood at 17% in experiment [1] and 1% in experiment [2].
As for `C[C@]12CCC(=O)C=C1C(=O)CC1C2CC[C@@]2(C)C1CC[C@@H]2OC1CC1` (stereo partly specified), the values for the inhibition at 1 µM in experiment [3] and in experiment [4] were 79% and 52%, respectively. Also, the inhibition at 0.1 µM in experiment [5] came to 17%; in experiment [6] it was 51%.
